This assay has as its system rumen liquor. As to the kind of experiment: In vitro test for methane production (modified Hohenheim Forage value Test, HFT). To be noted: for Effect on Methanogenesis (% compared to control) / Effect on VFA production (% compared to control): artificial TMR, 8 hours at 39° C.; for Effect on Methanogenesis (% compared to control) / Effect on VFA production (% compared to control) / VFA profile (as percentage of total VFA) Ace. / VFA profile (as percentage of total VFA) But. / VFA profile (as percentage of total VFA) Prop.: average of three experiments; for VFA profile (as percentage of total VFA) Ace.: acetate; for VFA profile (as percentage of total VFA) But.: butyrate; for VFA profile (as percentage of total VFA) Prop.: propionate.

The structures appear in SMILES notation.

`O=[N+]([O-])OCCCO` [3-nitrooxy propanol, 3-Nitrooxypropanol]: the “effect on the acetate/propionate ratio (in words)” value (3-nitrooxy propanol at 0.01% DM when combined with monensin) is listed as “further additive effect”. Moreover, under “3-nitrooxy propanol used at 0.01% DM”, the “methane inhibition (in words)” value is “maximal methane inhibition”. For the setting “Dose 0.005 % DM”, the “Effect on Methanogenesis (% compared to control)” value is recorded as −21%, the “Effect on VFA production (% compared to control)” value is −3%, the “VFA profile (as percentage of total VFA) Ace.” value is reported as 57 percentage of total VFA and the “VFA profile (as percentage of total VFA) But.” value was 7 percentage of total VFA. Besides, for the setting “Dose 0.005 % DM”, the “VFA profile (as percentage of total VFA) Prop.” value is recorded as 36 percentage of total VFA. Further, where the note is “Dose 0.01 % DM”, the “Effect on Methanogenesis (% compared to control)” value is reported as −97%, the “Effect on VFA production (% compared to control)” value is reported as −13%, the “VFA profile (as percentage of total VFA) Ace.” value was 50 percentage of total VFA and the “VFA profile (as percentage of total VFA) But.” value is 8 percentage of total VFA. The “VFA profile (as percentage of total VFA) Prop.” value (Dose 0.01 % DM) is 42 percentage of total VFA.

For the compound `CC[C@@]1([C@@H]2O[C@@H]([C@H]3O[C@@](O)(CO)[C@H](C)C[C@@H]3C)C[C@@H]2C)CC[C@H]([C@]2(C)CC[C@]3(C[C@H](O)[C@@H](C)[C@@H]([C@@H](C)[C@@H](OC)[C@H](C)C(=O)O)O3)O2)O1` [Monensin, monensin, reference compound], for the setting “Dose 0.01 % DM”, the “Effect on Methanogenesis (% compared to control)” value is listed as −23%, the “Effect on VFA production (% compared to control)” value was −6%, the “VFA profile (as percentage of total VFA) Ace.” value is listed as 56 percentage of total VFA and the “VFA profile (as percentage of total VFA) But.” value is 6 percentage of total VFA. Besides, the “VFA profile (as percentage of total VFA) Prop.” value (Dose 0.01 % DM) is on record as 38 percentage of total VFA.

The values are drawn from patent publication US10154981B2, “Use of a feed composition for reducing methane emission in ruminants, and/or to improve ruminant performance” (DSM IP ASSETS B.V., priority 2011, dated 2018).
